Laboratory results reported in patent US5980935A, “Cationic lipids and methods of use therefor” (priority 1996, dated 1999).

Columns and labels:
living cells = test: Delivery of functional plasmid DNA and phosphorothioate oligonucleotide into living cells (summary comparison); format: cell-based
From the text: We have tested Arg-PE for its ability to deliver functional plasmid DNA and phosphorothioate oligonucleotide (PS ON) into living cells. […] Helper lipids are required for the activity of previously known monocationic lipids.

NCI-A549 cells = test: Uptake of fluorescein-labeled 18-mer phosphorothioate oligonucleotide (F-ON), fluorescence microscopy; format: cell-based, human; details: oligonucleotide/lipid weight ratio 1:12, 24 hours, 37° C.
Protocol: Human lung adenocarcinoma cells (NCI-A549, American Type Culture Collection) were grown on Permanox® chamber slides in […] medium supplemented with 10% fetal calf serum (R-10) at 37° C. and 5% CO2. 4 micrograms of fluroscein-labeled 18-mer phosphorothioate oligonucleotide (F-ON) in 0.1 ml of HEPES-buffered saline (20 mM hydroxyethylpiperazine-ethane sulfonic acid (HEPES), 144 mM NaCl, pH 7.4) were mixed with Arg-PE formulated as described in Example 2, at the weight ratio of oligonucleotide to the lipid of 1:12. After 30 minutes of incubation, the mixture was made up to 2 mi with R-10 and added to the cells. After 24 hours incubation at 37° C., 5% CO2, the medium was aspirated, the cells washed 4 times with HEPES-buffered balanced salt solution, and immediately examined through a fluorescence microscope. […] Accumulation of the oligonucleotide in NCI-A549 cells, incubated with F-ON under the same conditions, but in the absence of Arg-PE, was undetectable.

C26 cells = test: Delivery of bacterial plasmid into mouse colon carcinoma C26 cells, luciferase expression (Table 3); format: cell-based
Protocol: (§1) These materials were used as supplied from the manufacturer. DOTAP-DOPE 1:1 was prepared from the mixture (1:1 by weight) of 1,2 dioleoyloxy-3-trimethylammoniopropane (DOTAP, Avanti PolarLipids, USA) and DOPE by dissolving in distilled water at the concentration 2 mg/ml. DDAB-DOPE 1:2.5 (also known as LipofectACE®, Gibco BRL, USA) was prepared from the mixture of dioctadecyl-dimethylammonium bromide (DDAB, Sigma, USA) and DOPE in the weight ratio 1:2.5 dissolved in distilled water at concentration of 3 mg/ml with brief sonication. All lipid solutions were sterilized by filtration though 0.2 micrometer cellulase acetate filter, unless supplied sterile by manufacturers.
Mouse colon carcinoma cells (C26) were grown, incubated with plasmid pCMVLUC in the presence of Arg-PE or commercially available cationic lipids, and assayed for luciferase expression as described in Example 5 above.

KB31 cells [1] = test: Delivery of bacterial plasmid pUC-CMVLUC into KB31 cells, luciferase reporter expression (Table 1); format: cell-based, human; details: KB cells, pUC-CMVLUC 1 microgram, 7 h; maximum over a range of plasmid/lipid ratios
Protocol: as §1
Human epidermoid carcinoma (KB31) cells were grown at 37° C. and 5% CO2 in RPMI 1640 medium supplemented with 10% heat-inactivated fetal calf serum. The cells were plated into a 12-well cell culture plate at 1.5×10^5 cells/well in 1 ml of the growth medium. After a 24 hour acclimation period, 1 microgram of bacterial plasmid (pUC-CMVLUC) with luciferase reporter gene under control of the CMV promoter was added to the cell media, either alone, or in the complex with cationic lipids as indicated below, prepared at a variety of lipid-to-DNA ratios. The complexes were prepared by mixing the lipid, as supplied by the manufacturer, and 1 microgram of the plasmid in 40 microliters of HEPES-NS. […]

NCI-H1048 cells [2] = test: Delivery of bacterial plasmid into human extrapulmonary small cell carcinoma NCI-H1048 cells, luciferase expression (Table 4); format: cell-based
Protocol: as §1
The cells were plated into a 12-well cell culture plate at 1.5×10^5 cells/well in 1 ml of the growth medium. After a 24 hour acclimation period, 1 microgram of bacterial plasmid (pUC-CMVLUC) with luciferase reporter gene under control of the CMV promoter was added to the cell media, either alone, or in the complex with cationic lipids as indicated below, prepared at a variety of lipid-to-DNA ratios. The complexes were prepared by mixing the lipid, as supplied by the manufacturer, and 1 microgram of the plasmid in 40 microliters of HEPES-NS. […]

NCI-H1048 cells [3] = test: Uptake of fluorescein-labeled 24-mer phosphorothioate oligonucleotide, flow cytometry (Table 2); format: cell-based, human; details: for Total uptake: mean cell fluorescence / Uptake increase over oligo alone: oligonucleotide 0.5 micro-M
Protocol: Human small cell lung carcinoma cells (NCI-H1048) were grown in RPMI-1640 medium with 10% heat-inactivated fetal calf serum. The cells were exposed for 7 hours in a serum-free medium with a fluorescein-labeled 24-mer phosphorothioate oligonucleotide (0.5 micro-M final concentration), alone or in a complex with lipids obtained as described in Examples 2 and 3. Then the equal volume of serum-supplemented medium was added, and the cells were incubated for another 18 hours. After incubation, cellular accumulation of the oligonucleotide was assayed by flow cytometry using fluorescein label fluorescence.

KB31 cells [4] = test: Toxicity of lipids alone or in complex with plasmid for cultured cells, MTT assay; format: cell-based, human; details: for Toxicity in the studied range of concentrations efficient for gene delivery: cultured human cells, alone or in combination with DNA
Protocol: Lipids alone, or in the complex with pUC-CMVLUC plasmid at the indicated ratio were added to the cell medium at concentrations of 3.2-100 microgram of lipid per 1 ml of growth medium. After 24 hours exposure to the lipids, the lipid-containing media were removed, and the cells were further incubated in fresh growth medium for 65 hours. At the end of incubations, the cell viability was determined by MTT assay as described in T. Mossman 65 J. Immunol.

[5] = pUC-CMVLUC, maximum over a range of plasmid/lipid ratios

CCCCCCCC/C=C\CCCCCCCC(=O)OC[C@H](COP(=O)(O)OCCNC(=O)[C@@H](N)CCCNC(=N)N)OC(=O)CCCCCCC/C=C\CCCCCCCC [Arg-PE, N-Arginyl-dioleoylphosphatidylethanolamine]
Efficiency of DNA delivery compared with DOGS (living cells): superior to that of a polycationic lipid, DOGS
Efficiency of cellular delivery of DNA and PS ON versus commercial materials (living cells): higher efficiency of the cellular delivery of DNA and PS ON
DNA delivery activity without helper lipid (living cells; without the use of a "helper lipid"): highly active for the DNA delivery into the cells even without the use of a "helper lipid"
Cells showing nuclear fluorescence and cytoplasmic deposits of fluorescent material (NCI-A549 cells): 100%
Microscopic appearance (intracellular distribution of F-ON) (NCI-A549 cells): bright green nuclear fluorescence and substantial cytoplasmic deposits of granular fluorescent material
Plasmid delivery compared with other cationic lipids (C26 cells): more effective for the plasmid delivery into C26 cells than other monocationic lipids and as effective as the polycationic lipid Transfectam®
Maximum luciferase activity (C26 cells; [5]): 9.02 × 10^7 RLU/mg protein
Maximum luciferase activity (KB31 cells [1]): 8.25 × 10^6 RLU/mg protein
Plasmid delivery compared with Transfectam (NCI-H1048 cells [2]): as effective for the plasmid delivery into NCI-H1048 cells as a polycationic Transfectam®
Maximum luciferase activity (NCI-H1048 cells [2]; [5]): 3.21 × 10^5 RLU/mg protein
Enhancement of oligonucleotide uptake compared with commercial cationic lipids (NCI-H1048 cells [3]; NCI-H1048 cells): enhanced the uptake of the oligonucleotide by the cells at least as effectively as the tested commercial cationic lipids
Total uptake: mean cell fluorescence (NCI-H1048 cells [3]; oligo/lipid ratio 1:3): 2.97 relative units
Uptake increase over oligo alone (NCI-H1048 cells [3]; oligo/lipid ratio 1:3): 4.26 times
Total uptake: mean cell fluorescence (NCI-H1048 cells [3]; oligo/lipid ratio 1:6): 4.08 relative units
Uptake increase over oligo alone (NCI-H1048 cells [3]; oligo/lipid ratio 1:6): 5.85 times
Toxicity compared with commercial lipids (MTT viability) (KB31 cells [4]; 3.2-100 microgram lipid per ml, 24 hours exposure, lipid as such or DNA-lipid complexes): displayed the least toxicity
Toxicity in the studied range of concentrations efficient for gene delivery (KB31 cells [4]): no detectable toxicity

CCCCCCCCCCCCCCCCCCN(CCCCCCCCCCCCCCCCCC)C(=O)CNC(=O)C(CCCNCCCN)NCCCN (stereo not drawn) [DOGS, reference compound]
Toxicity in the studied range of concentrations efficient for gene delivery (KB31 cells [4]): no detectable toxicity
